Experimental data published in patent US20250242035A1, “GLYCAN CONJUGATE COMPOSITIONS AND METHODS” (GANNA BIO, INC., priority 2022, published 2025).

What was measured:
DC-SIGNR = biological target: T1, DC-SIGNR (Homo sapiens, UniProt Q9H2X3); experiment: In vitro glycan array protein binding, DC-SIGNR; details: 20 μg/mL protein, glycan printed at 100 μM
T1 construct: purchased R&D Systems 162-D2
T1 sequence (Q9H2X3 1-399): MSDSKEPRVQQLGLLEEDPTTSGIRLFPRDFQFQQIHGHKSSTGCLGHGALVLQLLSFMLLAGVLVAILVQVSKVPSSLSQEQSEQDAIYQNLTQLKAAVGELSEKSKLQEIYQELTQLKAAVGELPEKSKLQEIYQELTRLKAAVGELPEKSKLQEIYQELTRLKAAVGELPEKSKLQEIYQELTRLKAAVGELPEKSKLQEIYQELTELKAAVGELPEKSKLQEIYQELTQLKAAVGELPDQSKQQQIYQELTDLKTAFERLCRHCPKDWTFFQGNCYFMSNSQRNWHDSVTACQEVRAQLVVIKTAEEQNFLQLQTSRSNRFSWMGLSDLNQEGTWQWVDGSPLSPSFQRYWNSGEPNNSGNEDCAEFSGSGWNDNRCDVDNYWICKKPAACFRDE
Protocol: […]. Commercially available proteins tagged with human fragment crystallizable region (Fc) were used for the glycan array screening: DC-SIGNR (R&D Systems, 162-D2), Siglec7 (R&D Systems, 1138-SL), CD2 (R&D Systems, 1856-CD-050), CD83 (R&D Systems, 2044-CD), KLRF1 (R&D Systems, 1099-NK), CD28 (Sino Biological Inc., 11524-H41H).
Protein samples were prepared with 1% bovine serum albumin (BSA) in tris-sucrose-magnesium chloride (TSM) buffer with additional Ca^2+ (20 mM tris-HCl, 150 mM sodium chloride, 5 mM calcium chloride, 2 mM magnesium chloride, and 0.05% Tween 20). Proteins were incubated with the glycan array for 1 hour at room temperature at the concentrations indicated in Tables 9A-9F before being washed three times with wash buffer (20 mM tris-HCl, 150 mM sodium chloride, 5 mM calcium chloride, 2 mM magnesium chloride). The arrays were then contacted with Alexa Fluor 488-labeled goat anti-human IgG (H+L) (Invitrogen A-11013) at 5 μg/ml and measured by fluorescence detection. Values in Tables 9A-9F are reported in relative fluorescence units (RFUs).

Siglec-7 = biological target: T2, Siglec-7 (Homo sapiens, UniProt Q9Y286); experiment: In vitro glycan array protein binding, Siglec-7; details: 10 μg/mL protein, glycan printed at 100 μM
T2 construct: purchased R&D Systems 1138-SL

FXII = experiment: Knockdown measured using plasma FXII ELISA; type: in vivo, mice; details: 10-day post dose
Protocol: Glyco-siRNA conjugates were prepared as described in Examples 6 and 7, wherein the siRNA was an HPRT1-siRNA (SEQ ID NOS: 8 and 9).
Plasma from the 10-day post dose mice was collected using EDTA tube and saved at −80° C. before analysis. The plasma FXII levels were measured using Innov-Research FXII ELISA kit (Cat. No. IMSF12KT) following the provider's instructions.

Primary B cells = experiment: In vitro glyco-siRNA internalization by stem loop qPCR, primary B cells; type: cell-based
Protocol: (§1) Primary B cells, T cells and NK cells were purchased from […] Technologies Inc. Primary B, T and NK cells were plated 24 hours before the experiment at 100,000 cells per well in […] of Roswell Park Memorial Institute (RPMI) medium with 10% fetal bovine serum (FBS) in 96-well plates. Glyco-siRNAs were incubated with cells for 4 hours. After incubation, media was removed and washed three times in PBS or PBS+150 mM NaCl. […] A final concentration of 1 mM dNTP, 5 U/μl transcriptase, 0.38 U/μl Rnase inhibitor, 50 nM stem loop RT primer (IDT) against siRNA targeting beta catenin (5′-[…]-3′ (SEQ ID NO: 21)) was mixed in a 10 μl volume reaction with 1× buffer. Frozen cell lysates were thawed and heated at 95° C. for 10 minutes and 5 μl of the boiled cell lysate was added to each 10 μl of reverse transcription mix. Samples were incubated first in 16° C. for 30 minutes then 42° C. for 30 minutes followed by 85° C. for 5 minutes and the samples were ready to be used for qPCR reaction. […] 1.5 ul of cDNA template from the reverse transcription reaction is added to the qPCR mix to a final volume for 10 μl. Samples were first incubated at 95° C. for 10 minutes followed by 40 cycles of 30 seconds of 95° C. and 1 minute at 60° C. Relative enrichment of siRNA over endogenous Micro-RNAs were calculated based on the Ct value of standard curve.

Primary T cells = experiment: In vitro glyco-siRNA internalization by stem loop qPCR, primary T cells; type: cell-based
Protocol: as §1

[1] = system: Natural Killer (NK) cells; experiment: In vitro glyco-siRNA internalization by stem loop qPCR, NK cells; type: cell-based
Protocol: as §1

T2 sequence (Q9Y286 19-467): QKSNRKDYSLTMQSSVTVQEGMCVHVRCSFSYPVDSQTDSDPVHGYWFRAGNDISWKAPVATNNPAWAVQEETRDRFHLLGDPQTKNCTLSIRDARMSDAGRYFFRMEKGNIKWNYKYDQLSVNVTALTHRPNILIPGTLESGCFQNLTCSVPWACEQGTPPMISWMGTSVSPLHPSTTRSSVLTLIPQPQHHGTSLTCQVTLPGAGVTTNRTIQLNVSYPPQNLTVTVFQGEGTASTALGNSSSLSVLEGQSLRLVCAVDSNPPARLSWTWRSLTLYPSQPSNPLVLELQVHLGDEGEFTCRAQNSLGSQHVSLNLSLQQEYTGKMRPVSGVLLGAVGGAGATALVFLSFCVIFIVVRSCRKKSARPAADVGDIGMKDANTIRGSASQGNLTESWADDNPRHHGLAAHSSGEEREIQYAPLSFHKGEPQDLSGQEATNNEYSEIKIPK

CC(=O)NC1C(OC2C(O)C(CO)OC(OC3C(CO)OC(O)C(O)C3O)C2O)OC(CO)C(OC2OC(CO)C(O)C(OC3OC(CO)C(OC4OC(CO)C(O)C(O)C4OC4OC(C)C(O)C(O)C4O)C(O)C3NC(C)=O)C2O)C1O (stereo not shown) [K-22, Fucα1-2Galb1-4GlcNAcb1-3Galb1-4GlcNAcb1-3Galb1-4Glc]
Binding to DC-SIGNR (20 μg/ml)(RFU) (DC-SIGNR): 1047827 RFU

CC(=O)N[C@H]1[C@H](O[C@H]2[C@@H](O)[C@@H](CO)O[C@@H](O[C@H]3[C@H](O)[C@@H](O)C(O)O[C@@H]3CO)[C@@H]2O)O[C@H](CO)[C@@H](O[C@@H]2O[C@H](CO)[C@H](O)[C@@H](O[C@@H]3O[C@H](CO)[C@@H](O)[C@H](O)[C@H]3NC(C)=O)[C@H]2O)[C@@H]1O (stereo partly shown) [K-28, GlcNAcb1-3Galb1-4GlcNAcb1-3Galb1-4Glc]
Binding to DC-SIGNR (20 μg/ml)(RFU) (DC-SIGNR): 723698.8 RFU

CC(=O)N[C@H]1[C@H](O[C@H]2[C@@H](O)[C@@H](CO)O[C@@H](O[C@H]3[C@H](O)[C@@H](O)C(O)O[C@@H]3CO)[C@@H]2O)O[C@H](CO)[C@@H](O[C@@H]2O[C@H](CO)[C@H](O)[C@H](O)[C@H]2O)[C@@H]1O[C@@H]1O[C@@H](C)[C@@H](O)[C@@H](O)[C@@H]1O (stereo partly shown) [K-29, Galb1-4(Fucα1-3)GlcNAcb1-3Galb1-4Glc]
Binding to DC-SIGNR (20 μg/ml)(RFU) (DC-SIGNR): 718967.2 RFU

CC(=O)N[C@H]1[C@H](O[C@H]2[C@@H](O)[C@@H](CO)O[C@@H](O[C@H]3[C@H](O)[C@@H](O)C(O)O[C@@H]3CO)[C@@H]2O)O[C@H](CO)[C@@H](O[C@@H]2O[C@H](CO)[C@H](O)[C@H](O)[C@H]2O[C@@H]2O[C@@H](C)[C@@H](O)[C@@H](O)[C@@H]2O)[C@@H]1O (stereo partly shown) [K-30, Fuca1-2Galb1-4GlcNAcb1-3Galb1-4Glc]
Binding to DC-SIGNR (20 μg/ml)(RFU) (DC-SIGNR): 631597 RFU

CC(=O)N[C@H]1[C@H]([C@H](O)[C@H](O)CO)O[C@@](O[C@H](CO)[C@@H](O)[C@@H]2O[C@@](O[C@H]3[C@@H](O)[C@@H](CO)O[C@@H](O[C@H]4[C@H](O)[C@@H](O)C(O)O[C@@H]4CO)[C@@H]3O)(C(=O)O)C[C@H](O)[C@H]2NC(C)=O)(C(=O)O)C[C@@H]1O (stereo partly shown) [K-51, Neu5Ac(a2-8)Neu5Ac(a2-3)Gal(b1-4)Glc]
Binding to Siglec-7 (10 μg/ml)(RFU) (Siglec-7): 28368.5 RFU

[N-]=[N+]=NCCO[C@@H]1O[C@H](CO)[C@@H](O)[C@H](O)[C@H]1O [X-2, 2-Azidoethyl β-D-glucopyranoside, reference compound]
Knockdown Relative to PBS Control Measured Using FXII ELISA, % of PBS Control (FXII; 0.1 mg/kg): 83.00 % of PBS Control
Knockdown Relative to PBS Control Measured Using FXII ELISA, % of PBS Control (FXII; 1 mg/kg): 77.24 % of PBS Control
Primary B Cell Uptake (Fold Increase vs Naked siRNA) (Primary B cells; Donor 1, 4 hours incubation): 2.72 Fold
Primary B Cell Uptake (Fold Increase vs Naked siRNA) (Primary B cells; Donor 2, 4 hours incubation): 2.17 Fold
Primary T Cell Uptake (Fold Increase vs Naked siRNA) (Primary T cells; Donor 1, 4 hours incubation): 2.83 Fold
Primary T Cell Uptake (Fold Increase vs Naked siRNA) (Primary T cells; Donor 2, 4 hours incubation): 1.68 Fold
NK Cell Uptake (Fold Increase vs Naked siRNA) ([1]; Donor 1 repeat 1, NK cells incubated with glyco-siRNA for 4 hours): 2.16 fold
NK Cell Uptake (Fold Increase vs Naked siRNA) ([1]; Donor 2 repeat 2, NK cells incubated with glyco-siRNA for 4 hours): 2.60 fold

CC(=O)N[C@H]1[C@H](O[C@H]2[C@@H](O)[C@@H](CO)O[C@@H](O[C@H]3[C@H](O)[C@@H](O)C(O)O[C@@H]3CO)[C@@H]2O)O[C@H](CO)[C@@H](O)[C@@H]1O (stereo partly shown) [K-23, GlcNAcb1-3Galb1-4Glc]
Binding to DC-SIGNR (20 μg/ml)(RFU) (DC-SIGNR): 1047468 RFU

CC(=O)NC1C(OCC2OC(OC3C(CO)OC(O)C(O)C3O)C(O)C(OC3OC(CO)C(O)C(O)C3NC(C)=O)C2O)OC(CO)C(O)C1O (stereo not shown) [K-27, GlcNAcb1-3(GlcNAcb1-6)Galb1-4Glc]
Binding to DC-SIGNR (20 μg/ml)(RFU) (DC-SIGNR): 862190.8 RFU

CC(=O)N[C@H]1[C@H](O[C@H]2[C@@H](O)[C@@H](CO)O[C@@H](O[C@H]3[C@H](O)[C@@H](O)C(O)O[C@@H]3CO)[C@@H]2O)O[C@H](CO)[C@@H](O[C@@H]2O[C@H](CO)[C@H](O)[C@H](O[C@H]3O[C@H](CO)[C@H](O)[C@H](O)[C@H]3O)[C@H]2O)[C@@H]1O[C@@H]1O[C@@H](C)[C@@H](O)[C@@H](O)[C@@H]1O (stereo partly shown) [K-31, Gala1-3Galb1-4(Fuca1-3)GlcNAcb1-3Galb1-4Glc]
Binding to DC-SIGNR (20 μg/ml)(RFU) (DC-SIGNR): 543554.7 RFU
